Test results reported in patent US5591755A, “Pyridinyl thiadiazolyl compounds for treating glaucoma” (Novo Nordisk A/S, priority 1990, dated 1997).
Where a name gives a salt, the structure may show the parent alone. Read-outs that look alike come from different tables or passages of the source.

Tests used:
[1] = target: muscarinic receptor in the CNS; conditions: read-out: affinity of sites labelled by 3H-Oxo, cited from earlier work
[2] = in vivo; cited from earlier work
[3] = test system: central and peripheral muscarinic effects; conditions: cited from earlier work
[4] = target: muscarinic acetylcholine receptors; assay: inhibition of specific binding of 3H-Oxotremorine-M (3H-Oxo), in vitro; parameters: species or system rat (cortex from male Wistar rats); conditions: 3H-Oxo binding, rat cortex, 1.0 nM radioligand, 20 mM Hepes pH 7.4, 30 min at 25° C.
Source text: The pharmacological properties of the compounds of the invention can be illustrated by determining their capability to inhibit the specific binding of ^3 H-Oxotremorine-M (^3 H-Oxo). Birdsdall N. J. M., Hulme E. C., and Burgen A. S. V. (1980). "The Character of Muscarinic Receptors in Different Regions of the Rat Brain". Proc. Roy. Soc. London (Series B) 207,1. ^3 H-Oxo labels muscarinic receptor in the CNS (with a preference for agonist domaines of the receptors). Three different sites are labelled by ^3 H-Oxo. […] Using the present experimental conditions only the high and medium affinity sites are determined.
The inhibitory effects of compounds on ^3 H-Oxo binding reflects the affinity for muscarinic acetylcholine receptors.
All preparations are performed at 0°-4° C. unless otherwise indicated. Fresh cortex (0.1-1 g) from male Wistar rats (150-250 g) is homogenized for 5-10 s in 10 ml 20 mM Hepes pH: 7.4, with an Ultra-Turrax homogenizer. The homogenizer is rinsed with 10 ml of buffer and the combined suspension centrifuged for 15 min at 40,000×g. The pellet is washed three times with buffer. In each step the pellet is homogenized as before in 2×10 ml of buffer and centrifuged for 10 min at 40,000×g.
The final pellet is homogenized in 20 mM Hepes pH: 7.4 (100 ml per g of original tissue) and used for binding assay. Aliquots of 0.5 ml is added 25 μl of test solution and 25 μl of 3H-Oxotremorine (1.0 nM, final concentration) mixed and incubated for 30 min at 25° C. Non-specific binding is determined in triplicate using arecoline (1 μg/ml, final concentration) as the test substance. After incubation samples are added 5 ml of ice-cold buffer and poured directly onto Whatman GF/C glass fiber filters under suction and immediately washed 2 times with 5 ml of ice-cold buffer. The amount of radioactivity on the filters are determined by conventional liquid scintillation counting. Specific binding is total binding minus non specific binding.
Test substances are dissolved in 10 ml water (if necessary heated on a steambath for less than 5 minutes) at a concentration of 2.2 mg/ml.
The test value will be given as IC50 (the concentration (ng/ml) of the test substance which inhibits the specific binding of ^3 H-Oxo by 50%). [formula] where Co is specific binding in control assays and Cx is the specific binding in the test assay. (The calculations assume normal mass-action kinetics).

SMILES	Inhibition in vitro OXO BINDING (IC50) [4] [ng/mL]	also measured
C[N+](C)(C)CC#CCN1CCCC1=O [Compound 3H-Oxo, ^3 H-Oxotremorine-M]		Kd ([1]; first of three sites (high affinity)): 1.8 nM; Kd ([1]; second of three sites (medium affinity)): 20 nM; Kd ([1]; third of three sites (not determined under the present conditions)): 3000 nM
COC(=O)C1=CCCN(C)C1 [Arecoline, methyl 1-methyl-1,2,5,6-tetrahydropyridine-3-carboxylate]		biological half life [2]: very short biological half life; separation between central and peripheral muscarinic effects [3]: small separation between central and peripheral muscarinic effects
CCCCCSc1nsnc1C1=CCC(C)N(C)C1.O=C(O)C(=O)O (stereo not shown) [Compound 4, 3-(3-Pentylthio-1,2,5-thiadiazol-4-yl)-1,2,5,6-tetrahydro-1,6-dimethylpyridine oxalate]	2.0	
CCCCCCOc1nsnc1C1=C(C)CCN(C)C1 [Compound 2, 3-(4-Hexyloxy-1,2,5-thiadiazol-3-yl)-1,2,5,6-tetrahydrohydro-1,4-dimethylpyridine oxalate]	18	
CC1CC=C(c2nsnc2SCc2ccc(C#N)cc2)CN1C.O=C(O)C(=O)O (stereo not shown) [Compound 5, 3-(3-(4-Cyanobenzylthio)-1,2,5-thiadiazol-4-yl)-1,2,5,6-tetrahydro-1,6-dimethylpyridine oxalate]	1.9	
CCCCCCOc1nsnc1C1=CCC(C)N(C)C1.O=C(O)C(=O)O (stereo not shown) [Compound 6, 3-(3-Hexyloxy-1,2,5-thiadiazol-4-yl)-1,2,5,6-tetrahydro-1,6-dimethylpyridine oxalate]	2.4	
CCCCCOc1nsnc1C1=CCC(C)N(C)C1.O=C(O)C(=O)O (stereo not shown) [Compound 7, 3-(3-Pentyloxy-1,2,5-thiadiazol-4-yl)-1,2,5,6-tetrahydro-1,6-dimethylpyridine oxalate]	3.3	
CC1CC=C(c2nsnc2SCCCCC#N)CN1C.O=C(O)C(=O)O (stereo not shown) [Compound 8, 3-(3-(4-Cyanobutylthio)-1,2,5-thiadiazol-4-yl)-1,2,5,6-tetrahydro-1,6-dimethylpyridine oxalate]	0.69	
CCCCCCSc1nsnc1C1=CCC(C)N(C)C1.O=C(O)C(=O)O (stereo not shown) [Compound 3, 3-(3-Hexylthio-1,2,5-thiadiazol-4-yl)-1,2,5,6-tetrahydro-1,6-dimethylpyridine oxalate]	4.5	
COc1nsnc1C1=C(C)CCN(C)C1.O=C(O)/C=C/C(=O)O [Compound 1, 1,2,5,6-Tetrahydro-3-(4-methoxy-1,2,5-thiadiazol-3-yl)-1,4-dimethylpyridine fumarate]	108	
